Experiments:
[1] = biological target: T1, Metabotropic glutamate receptor 2 (Homo sapiens, UniProt Q14416); assay: Concentration required for the half-maximal inhibition of cAMP […] in BHK cells expressing mGluR2; format: functional, cell-based
[2] = Inhibitory concentration towards the sodium dependent glutamate transport into synaptosomes.; format: functional, subcellular, Brain
[3] = biological target: Glutamate NMDA receptor; assay: Binding affinity towards Ionotropic glutamate receptor NMDA; format: protein-complex assay
[4] = Inhibitory concentration towards calcium/chloride-dependent glutamate transport into synaptosomes; format: functional, subcellular, Rattus norvegicus, Brain
[5] = biological target: Glutamate receptor ionotropic, kainate; assay: Binding affinity towards Ionotropic glutamate receptor kainate; format: protein-complex assay
[6] = biological target: Glutamate receptor ionotropic, AMPA (Rattus norvegicus, UniProt P19490+P19491+P19492+P19493); assay: Binding affinity towards Ionotropic glutamate receptor AMPA; format: protein-complex assay
[7] = biological target: T1, Metabotropic glutamate receptor 2; assay: Effective concentration forskolin-stimulated cAMP formation in BHK cells expressing mGluR2 receptor; format: functional, cell-based
[8] = biological target: T1, Metabotropic glutamate receptor 2; assay: Effective concentration of compound against forskolin-stimulated cAMP formation in BHK cells expressing mGluR2 receptor; format: functional, cell-based
[9] = biological target: T1, Metabotropic glutamate receptor 2; assay: Concentration required for the half-maximal inhibition of cAMP formation in BHK cells expressing mGluR2.; format: functional, cell-based
[10] = biological target: T1, Metabotropic glutamate receptor 2; assay: Concentration required for the half-maximal inhibition of cAMP formation in BHK cells expressing mGluR2; format: functional, cell-based
[11] = biological target: Metabotropic glutamate receptor 1 (Homo sapiens, UniProt Q13255); assay: Binding affinity towards mGluR1a was determined
Sequence of Metabotropic glutamate receptor 1 (Q13255 whole entry): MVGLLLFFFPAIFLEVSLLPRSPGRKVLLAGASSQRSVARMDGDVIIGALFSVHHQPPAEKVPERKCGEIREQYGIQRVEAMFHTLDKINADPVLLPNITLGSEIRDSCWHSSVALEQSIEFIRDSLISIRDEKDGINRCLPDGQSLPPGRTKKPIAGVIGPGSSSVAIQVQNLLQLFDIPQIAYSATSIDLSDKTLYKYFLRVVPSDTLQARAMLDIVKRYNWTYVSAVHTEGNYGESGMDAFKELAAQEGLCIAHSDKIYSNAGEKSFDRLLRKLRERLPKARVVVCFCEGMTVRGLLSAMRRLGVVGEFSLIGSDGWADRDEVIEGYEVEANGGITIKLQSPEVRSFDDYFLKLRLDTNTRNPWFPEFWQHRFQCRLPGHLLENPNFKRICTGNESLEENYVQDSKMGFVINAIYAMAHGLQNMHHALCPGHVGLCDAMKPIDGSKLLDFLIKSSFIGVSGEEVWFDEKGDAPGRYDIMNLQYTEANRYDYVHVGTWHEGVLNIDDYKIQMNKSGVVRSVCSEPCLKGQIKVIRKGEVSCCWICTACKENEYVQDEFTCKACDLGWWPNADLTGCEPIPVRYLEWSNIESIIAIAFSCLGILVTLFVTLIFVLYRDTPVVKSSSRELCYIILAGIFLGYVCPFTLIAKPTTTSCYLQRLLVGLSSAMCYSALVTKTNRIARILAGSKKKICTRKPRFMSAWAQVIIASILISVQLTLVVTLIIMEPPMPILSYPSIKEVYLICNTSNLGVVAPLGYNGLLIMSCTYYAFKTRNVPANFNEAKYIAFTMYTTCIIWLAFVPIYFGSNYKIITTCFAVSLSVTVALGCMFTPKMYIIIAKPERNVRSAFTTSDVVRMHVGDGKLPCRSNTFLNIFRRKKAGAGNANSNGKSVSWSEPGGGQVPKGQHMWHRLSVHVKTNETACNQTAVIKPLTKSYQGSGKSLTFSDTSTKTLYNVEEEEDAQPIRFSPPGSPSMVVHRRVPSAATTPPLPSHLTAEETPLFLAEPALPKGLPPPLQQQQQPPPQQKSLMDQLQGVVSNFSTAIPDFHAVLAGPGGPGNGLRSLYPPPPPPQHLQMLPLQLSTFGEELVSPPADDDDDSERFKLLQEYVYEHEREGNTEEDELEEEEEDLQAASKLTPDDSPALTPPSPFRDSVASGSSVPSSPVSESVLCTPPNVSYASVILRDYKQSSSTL

[12] = biological target: T1, Metabotropic glutamate receptor 2; assay: Antagonistic activity against mGluR2 was determined; format: functional

T1 sequence (Q14416 whole entry): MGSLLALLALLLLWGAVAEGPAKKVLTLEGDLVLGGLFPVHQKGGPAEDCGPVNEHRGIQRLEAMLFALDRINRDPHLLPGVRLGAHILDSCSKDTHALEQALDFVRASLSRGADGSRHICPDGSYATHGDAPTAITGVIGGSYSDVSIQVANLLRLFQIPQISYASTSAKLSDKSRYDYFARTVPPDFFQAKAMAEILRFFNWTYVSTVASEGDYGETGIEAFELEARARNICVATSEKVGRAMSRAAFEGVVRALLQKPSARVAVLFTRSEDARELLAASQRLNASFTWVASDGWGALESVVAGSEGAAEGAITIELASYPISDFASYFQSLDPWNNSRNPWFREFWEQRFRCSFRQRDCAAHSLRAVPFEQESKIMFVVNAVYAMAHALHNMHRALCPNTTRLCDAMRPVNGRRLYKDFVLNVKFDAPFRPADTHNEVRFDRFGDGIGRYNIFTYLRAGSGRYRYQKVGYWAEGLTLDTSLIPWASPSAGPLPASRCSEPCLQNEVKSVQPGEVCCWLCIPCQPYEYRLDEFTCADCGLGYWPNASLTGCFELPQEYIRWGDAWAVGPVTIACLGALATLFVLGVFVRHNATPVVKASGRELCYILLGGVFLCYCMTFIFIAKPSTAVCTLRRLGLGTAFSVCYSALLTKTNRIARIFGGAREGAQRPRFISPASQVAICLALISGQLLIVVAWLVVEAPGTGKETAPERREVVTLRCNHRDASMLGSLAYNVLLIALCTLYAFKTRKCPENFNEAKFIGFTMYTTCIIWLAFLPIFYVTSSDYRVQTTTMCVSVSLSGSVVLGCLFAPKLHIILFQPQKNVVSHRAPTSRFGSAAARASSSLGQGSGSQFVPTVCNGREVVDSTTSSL

**Q.** Which IC50 [1] does the source give for `N[C@@H](C(=O)O)[C@@H]1[C@@H](C(=O)O)[C@H]1c1ccccc1` here?
**A.** > 300 µM

**Q.** What about the IC50 [2] of the same compound?
**A.** > 300 µM

**Q.** What about the Ki [3] of the same compound?
**A.** 29 µM

**Q.** What about the IC50 [4] of the same compound?
**A.** 138 µM

**Q.** And the Ki [5]?
**A.** > 190 µM

**Q.** And the Ki [6]?
**A.** > 220 µM

**Q.** What about the EC50 [7] of the same compound?
**A.** > 300 µM

**Q.** With `N[C@@H](C(=O)O)[C@@H]1[C@H](C(=O)O)[C@H]1c1ccccc1` (stereo in doubt; 44) as the compound, how does the IC50 [1] read?
**A.** > 300 µM

**Q.** What about the IC50 [2] of the same compound?
**A.** > 300 µM

**Q.** What about the Ki [3] of the same compound?
**A.** > 200 µM

**Q.** And the IC50 [4]?
**A.** > 300 µM

**Q.** What about the Ki [5] of the same compound?
**A.** > 190 µM

**Q.** And the Ki [6]?
**A.** > 220 µM

**Q.** And the EC50 [7]?
**A.** > 300 µM

**Q.** With `N[C@H](C(=O)O)[C@H]1[C@H](C(=O)O)[C@@H]1c1ccccc1` as the compound, how does the IC50 [1] read?
**A.** > 300 µM

**Q.** And the IC50 [2]?
**A.** > 300 µM

**Q.** And the Ki [3]?
**A.** 25 µM

**Q.** What about the IC50 [4] of the same compound?
**A.** 85 µM

**Q.** And the Ki [5]?
**A.** > 190 µM

**Q.** And the Ki [6]?
**A.** > 220 µM

**Q.** And the EC50 [7]?
**A.** > 300 µM

**Q.** Which results are given for `N[C@@H](C(=O)O)[C@@H]1[C@@H](C(=O)O)[C@@H]1c1ccccc1`?
**A.** IC50 [2]: > 300 µM; Ki [3]: 193 µM; IC50 [4]: > 300 µM; Ki [5]: > 190 µM; EC50 [8]: > 300 µM; Ki [6]: 212 µM; IC50 [9]: > 300 µM

**Q.** What does the source list for `N[C@@H](C(=O)O)[C@H]1[C@@H](C(=O)O)[C@H]1c1ccccc1`?
**A.** IC50 [1]: > 300 µM; IC50 [2]: > 300 µM; Ki [3]: > 200 µM; IC50 [4]: 32 µM; Ki [5]: 117 µM; Ki [6]: > 220 µM; EC50 [7]: > 300 µM

**Q.** With `N[C@@H](C(=O)O)[C@H]1[C@@H](C(=O)O)[C@@H]1c1ccccc1` as the compound, how does the IC50 [1] read?
**A.** > 300 µM

**Q.** What about the IC50 [2] of the same compound?
**A.** > 300 µM

**Q.** What about the Ki [3] of the same compound?
**A.** 123 µM

**Q.** What about the IC50 [4] of the same compound?
**A.** 64 µM

**Q.** And the Ki [5]?
**A.** 155 µM

**Q.** What about the Ki [6] of the same compound?
**A.** 160 µM

**Q.** And the EC50 [7]?
**A.** > 300 µM

**Q.** Which IC50 [2] does the source give for `N[C@H](C(=O)O)[C@H]1[C@H](C(=O)O)[C@H]1c1ccccc1` here?
**A.** > 300 µM

**Q.** What about the Ki [3] of the same compound?
**A.** 107 µM

**Q.** And the IC50 [4]?
**A.** 41 µM

**Q.** What about the Ki [5] of the same compound?
**A.** 25 µM

**Q.** What about the IC50 [10] of the same compound?
**A.** > 300 µM

**Q.** And the Ki [6]?
**A.** 124 µM

**Q.** What about the EC50 [7] of the same compound?
**A.** > 300 µM

**Q.** Which IC50 [1] does the source give for `N[C@@H](C(=O)O)[C@H]1[C@H](C(=O)O)[C@@H]1c1ccccc1` here?
**A.** > 300 µM

**Q.** And the IC50 [2]?
**A.** > 300 µM

**Q.** What about the Ki [3] of the same compound?
**A.** > 200 µM

**Q.** And the IC50 [4]?
**A.** 23 µM

**Q.** What about the Ki [5] of the same compound?
**A.** > 190 µM

**Q.** And the Ki [6]?
**A.** > 300 µM

**Q.** What about the EC50 [7] of the same compound?
**A.** > 300 µM

**Q.** For `N[C@@H](C(=O)O)[C@@H]1[C@H](C(=O)O)[C@@H]1c1ccccc1`, which IC50 [1] is on record?
**A.** > 300 µM

**Q.** What about the IC50 [2] of the same compound?
**A.** > 300 µM

**Q.** What about the Ki [3] of the same compound?
**A.** > 200 µM

**Q.** And the IC50 [4]?
**A.** 143 µM

**Q.** What about the Ki [5] of the same compound?
**A.** 122 µM

**Q.** And the Ki [6]?
**A.** 251 µM

**Q.** What about the EC50 [7] of the same compound?
**A.** > 300 µM

**Q.** Which results are given for `N[C@H](C(=O)O)[C@@H]1[C@@H](C(=O)O)[C@H]1c1ccccc1`?
**A.** IC50 [1]: > 300 µM; IC50 [2]: > 300 µM; Ki [3]: 192 µM; IC50 [4]: 7 µM; Ki [5]: 126 µM; Ki [6]: > 220 µM; EC50 [7]: > 300 µM

**Q.** For `N[C@H](C(=O)O)[C@H]1[C@@H](C(=O)O)[C@@H]1c1ccccc1`, which IC50 [1] is on record?
**A.** > 300 µM

**Q.** And the IC50 [2]?
**A.** > 300 µM

**Q.** What about the Ki [3] of the same compound?
**A.** > 200 µM

**Q.** And the IC50 [4]?
**A.** 213 µM

**Q.** What about the Ki [5] of the same compound?
**A.** 144 µM

**Q.** What about the Ki [6] of the same compound?
**A.** 141 µM

**Q.** And the EC50 [7]?
**A.** > 300 µM

**Q.** For `N[C@@H](C(=O)O)[C@@H]1[C@H](C(=O)O)[C@H]1c1ccccc1` (stereo in doubt; 47), which IC50 ([1]; bhk) is on record?
**A.** > 300 µM

**Q.** What about the IC50 [4] of the same compound?
**A.** 185 µM

**Q.** What about the Ki [5] of the same compound?
**A.** 221 µM

**Q.** What about the Ki [6] of the same compound?
**A.** 285 µM

**Q.** And the EC50 ([7]; bhk)?
**A.** > 300 µM

**Q.** What does the source list for `N[C@@H](C(=O)O)[C@H]1[C@H](C(=O)O)[C@H]1c1ccccc1`?
**A.** IC50 [2]: > 300 µM; Ki [3]: 129 µM; IC50 [4]: > 300 µM; Ki [5]: 15 µM; Ki [6]: 125 µM; EC50 [7]: 122 µM

**Q.** For `N[C@H](C(=O)O)[C@H]1[C@@H](C(=O)O)[C@H]1c1ccccc1`, which IC50 [1] is on record?
**A.** > 300 µM

**Q.** What about the IC50 [2] of the same compound?
**A.** > 300 µM

**Q.** And the Ki [3]?
**A.** > 200 µM

**Q.** And the IC50 [4]?
**A.** 233 µM

**Q.** And the Ki [5]?
**A.** > 190 µM

**Q.** What about the Ki [6] of the same compound?
**A.** > 220 µM

**Q.** And the EC50 [7]?
**A.** > 300 µM

**Q.** Which results are given for `CC(N)(C(=O)O)c1ccc(C(=O)O)cc1` (stereo not given)?
**A.** Ki [11]: 50 µM; IC50 [12]: 50 µM

**Q.** What does the source list for `N[C@H](C(=O)O)[C@@H]1[C@H](C(=O)O)[C@@H]1c1ccccc1`?
**A.** IC50 [1]: > 300 µM; IC50 [2]: > 300 µM; Ki [3]: > 200 µM; IC50 [4]: 270 µM; Ki [5]: 155 µM; Ki [6]: > 220 µM; EC50 [7]: > 300 µM

**Q.** With `N[C@H](C(=O)O)[C@@H]1[C@@H](C(=O)O)[C@@H]1c1ccccc1` as the compound, how does the IC50 [1] read?
**A.** 8 µM

**Q.** And the IC50 [2]?
**A.** > 300 µM

**Q.** And the Ki [3]?
**A.** > 200 µM

**Q.** What about the IC50 [4] of the same compound?
**A.** > 300 µM

**Q.** What about the Ki [5] of the same compound?
**A.** > 190 µM

**Q.** And the Ki [6]?
**A.** > 220 µM
